This note sets out measurements from patent publication US7737136B2 (N.V. Organon, priority 2002, dated 2010).

Where only a bound is given, the exact number is not on record here.

In one assay the target is T1, human progesterone receptor-B (Homo sapiens, UniProt P06401).
T1 construct: expressed in transfected cells; host or cells: Chinese hamster ovary (CHO) cells, line CHO-PRB-pMMTV-LUC 1E2-A2
T1 sequence (P06401 1-933): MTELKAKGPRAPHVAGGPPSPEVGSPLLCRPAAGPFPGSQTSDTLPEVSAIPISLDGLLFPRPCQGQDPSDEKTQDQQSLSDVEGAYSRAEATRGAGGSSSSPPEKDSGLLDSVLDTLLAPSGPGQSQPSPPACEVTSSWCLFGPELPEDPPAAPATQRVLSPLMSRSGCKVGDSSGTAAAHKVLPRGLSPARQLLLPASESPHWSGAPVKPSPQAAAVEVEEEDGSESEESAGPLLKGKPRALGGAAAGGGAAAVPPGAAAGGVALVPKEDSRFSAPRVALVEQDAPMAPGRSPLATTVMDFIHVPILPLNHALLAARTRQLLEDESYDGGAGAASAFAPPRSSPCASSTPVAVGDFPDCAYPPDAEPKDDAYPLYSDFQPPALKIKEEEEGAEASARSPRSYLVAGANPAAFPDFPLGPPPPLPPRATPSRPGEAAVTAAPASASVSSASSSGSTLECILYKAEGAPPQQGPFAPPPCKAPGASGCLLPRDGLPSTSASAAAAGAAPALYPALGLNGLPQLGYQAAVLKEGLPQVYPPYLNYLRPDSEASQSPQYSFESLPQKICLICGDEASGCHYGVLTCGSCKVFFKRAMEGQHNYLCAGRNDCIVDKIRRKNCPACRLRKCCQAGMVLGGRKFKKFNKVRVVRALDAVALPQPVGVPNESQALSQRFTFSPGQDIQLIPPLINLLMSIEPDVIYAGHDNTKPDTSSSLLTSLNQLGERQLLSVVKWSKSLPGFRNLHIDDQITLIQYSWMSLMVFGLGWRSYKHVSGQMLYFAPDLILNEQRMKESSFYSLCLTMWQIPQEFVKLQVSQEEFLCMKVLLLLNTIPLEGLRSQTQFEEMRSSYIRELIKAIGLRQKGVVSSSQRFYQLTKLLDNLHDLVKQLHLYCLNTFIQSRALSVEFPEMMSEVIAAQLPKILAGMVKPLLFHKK
Nature of the assay: Progesterone receptor-B transactivation assay, progestagenic (agonist) activity, CHO-PRB-pMMTV-LUC 1E2-A2 cells. In kind it is cell-based.
Details: not given
On the procedure:
The (anti-)progestagenic activity of a compound of the invention (EC 50 and intrinsic activity) was determined in an in vitro bioassay of Chinese hamster ovary (CHO) cells stably transfected with the human progesterone receptor-B expression plasmid and with a reporter plasmid in which the MMTV-promoter is linked to the luciferase reporter gene. […] The cells were cultured with charcoal-treated supplemented defined bovine calf serum from Hyclone (Utah, USA) in Dulbecco's Modified Eagles Medium/Nutrient Mixture F-12 (DMEM/HAM F12 in ratio 1:1) from Gibco (Paisley, UK).
As for `CCCN[C@H]1CCCN2c3cc(Cl)ccc3Oc3ccccc3[C@H]12` (relative stereo) [Example 37, trans-N-Propyl-7-chloro-2,3,4,14b-tetrahydro-1H-dibenzo[b,f]pyrido[1,2-d][1,4]oxazepine-1-amine], the EC50 was 100 to 10000 nM.

In turn, `O=C(CF)N[C@H]1CCCN2c3cc(Cl)ccc3Oc3ccccc3[C@H]12` (relative stereo) [Example 11, trans-N-(7-Chloro-2,3,4,14b-tetrahydro-1H-dibenzo[b,f]pyrido[1,2-d][1,4]oxazepin-1-yl)-2-fluoroacetamide] showed an EC50 of 10 to 100 nM.

The assay is the same for the next values; noted with them: CHO cells stably transfected with human progesterone receptor-B and MMTV-luciferase reporter; read-out: Progestagenic activity EC50.
For the molecule `O=C(N[C@H]1CCCN2c3cc(Cl)ccc3Nc3ccccc3[C@H]12)C(F)(F)F` (relative stereo) [Example 78, trans-N-(7-chloro-1,2,3,4,10,14b-hexahydrodibenzo[b,f]pyrido[1,2-d][1,4]diazepin-1-yl)-2,2,2-trifluoroacetamide], the EC50 fell in the range of 10 to 100 nM.

As to `FC(F)(F)C(=S)N[C@H]1CCCN2c3ccccc3Oc3ccccc3[C@H]12` (relative stereo) [Example 25], the EC50 was less than 10 nM.

With `CN(C(=S)C(F)(F)F)C1CCCN2c3cc(Cl)ccc3Oc3ccccc3C12` (stereo not shown) [Example 24], the EC50 fell in the range of 10 to 100 nM.

Regarding `NCC(=S)N[C@H]1CCCN2c3cc(Cl)ccc3Oc3ccccc3[C@H]12` (relative stereo) [Example 27], the EC50 fell in the range of 100 to 10000 nM.

Consider `NCC(=O)N[C@H]1CCCN2c3cc(Cl)ccc3Oc3ccccc3[C@H]12` (relative stereo) [Example 16, trans-2-Amino-N-(7-chloro-2,3,4,14b-tetrahydro-1H-dibenzo[b,f]pyrido[1,2-d][1,4]oxazepin-1-yl)acetamide], for which the EC50 fell in the range of 100 to 10000 nM.

Regarding `O=C(N[C@H]1CCCN2c3cc(Cl)ccc3Oc3cc(F)c(F)cc3[C@H]12)C(F)(F)F` (relative stereo) [Example 75, trans-N-(7-Chloro-12,13-difluoro-2,3,4,14b-tetrahydro-1H-dibenzo[b,f]pyrido[1,2-d][1,4]oxazepin-1-yl)-2,2,2-trifluoroacetamide], the EC50 was less than 10 nM.

As to `COc1cccc2c1N1CCC[C@H](NC(=O)C(F)(F)F)[C@H]1c1ccccc1O2` (relative stereo) [Example 55, trans-N-(2,3,4,14b-Tetrahydro-6-methoxy-1H-dibenzo[b,f]pyrido[1,2-d][1,4]oxazepin-1-yl)-2,2,2-trifluoroacetamide], the EC50 was in the range of 10 to 100 nM.

`O=C(N[C@H]1CCCN2c3cc(Cl)ccc3Oc3cccc(F)c3[C@H]12)C(F)(F)F` (relative stereo) [Example 73, trans-N-(7-Chloro-14-fluoro-2,3,4,14b-tetrahydro-1H-dibenzo[b,f]pyrido[1,2-d][1,4]oxazepin-1-yl)-2,2,2-trifluoroacetamide]: the EC50 is less than 10 nM.

For `O=C(N[C@H]1CCCN2c3cc(Cl)ccc3Oc3c(F)cccc3[C@H]12)C(F)(F)F` (relative stereo) [Example 72, trans-N-(7-Chloro-11-fluoro-2,3,4,14b-tetrahydro-1H-dibenzo[b,f]pyrido[1,2-d][1,4]oxazepin-1-yl)-2,2,2-trifluoroacetamide], the EC50 fell in the range of 10 to 100 nM.

Consider `CC(=O)c1cc(F)cc2c1N1CCC[C@H](NC(=O)C(F)(F)F)[C@H]1c1ccccc1O2` (relative stereo) [Example 57, trans-N-(6-Acetyl-8-fluoro-2,3,4,14b-tetrahydro-1H-dibenzo[b,f]pyrido[1,2-d][1,4]oxazepin-1-yl)-2,2,2-trifluoroacetamide], for which the EC50 is less than 10 nM.

In the case of `FC(F)C(=S)N[C@H]1CCCN2c3cc(Cl)ccc3Oc3ccccc3[C@H]12` (relative stereo) [Example 23], the concentration for a half-maximal effect (EC50) was less than 10 nM.

On to `CC(C)CN[C@H]1CCCN2c3cc(Cl)ccc3Oc3ccccc3[C@H]12` (relative stereo) [Example 36, trans-N-(2-Methylpropyl)-7-chloro-2,3,4,14b-tetrahydro-1H-dibenzo[b,f]pyrido[1,2-d][1,4]oxazepine-1-amine], for which the EC50 lay in the range of 100 to 10000 nM.

Turning to `C=Cc1cc(F)cc2c1N1CCC[C@H](NC(=O)C(F)(F)F)[C@H]1c1ccccc1O2` (relative stereo) [Example 59, trans-N-(6-Ethenyl-8-fluoro-2,3,4,14b-tetrahydro-1H-dibenzo[b,f]pyrido[1,2-d][1,4]-oxazepin-1-yl)-2,2,2-trifluoroacetamide], the EC50 was less than 10 nM.

Regarding `Cc1cc(F)cc2c1N1CCC[C@H](NC(=O)C(F)(F)F)[C@H]1c1ccccc1O2` (relative stereo) [Example 60, trans-2,2,2-Trifluoro-N-(8-fluoro-2,3,4,14b-tetrahydro-6-methyl-1H-dibenzo[b,f]pyrido-[1,2-d][1,4]oxazepin-1-yl)acetamide], the EC50 was less than 10 nM.

With `N#Cc1ccc2c(c1)Oc1ccc(Cl)cc1N1CCC[C@H](NC(=O)C(F)(F)F)[C@@H]21` (relative stereo) [Example 69, trans-7-Chloro-2,3,4,14b-tetrahydro-1-[(trifluoroacetyl)amino]-1H-dibenzo[b,f]pyrido[1,2-d][1,4]oxazepine-12-carbonitrile], the EC50 lay within 10 to 100 nM.

Regarding `CN(C(=O)C(F)(F)F)[C@H]1CCCN2c3cc(Cl)ccc3Oc3ccccc3[C@H]12` (relative stereo) [Example 28, trans-N-(7-Chloro-2,3,4,14b-tetrahydro-1H-dibenzo[b,f]pyrido[1,2-d][1,4]oxazepin-1-yl)-2,2,2-trifluoro-N-methylacetamide], the EC50 was 100 to 10000 nM.

In the case of `FC(F)(F)C(=S)N[C@H]1CCCN2c3c(ccc(Cl)c3Cl)Oc3ccccc3[C@H]12` (relative stereo) [Example 26], the EC50 was less than 10 nM.

Take `O=C(N[C@H]1CCCN2c3cc(Cl)ccc3Oc3ccccc3[C@H]12)C(F)F` [Example 13]: the EC50 lay in the range of 10 to 100 nM.

With `C=Cc1ccc2c(c1)N1CCC[C@H](NC(=O)C(F)(F)F)[C@H]1c1ccccc1O2` (relative stereo) [Example 64, trans-N-(7-Ethenyl-2,3,4,14b-tetrahydro-1H-dibenzo[b,f]pyrido[1,2-d][1,4]oxazepin-1-yl)-2,2,2-trifluoroacetamide], the EC50 lay in the range of 100 to 10000 nM.

In the case of `O=C(CCl)NC1CCCN2c3cc(Cl)ccc3Oc3ccccc3C12` (stereo not shown) [Example 14], the EC50 is 100 to 10000 nM.

Consider `CC(=O)c1ccc2c(c1)N1CCC[C@H](NC(=O)C(F)(F)F)[C@H]1c1ccccc1O2` (relative stereo) [Example 62, trans-N-(7-Acetyl-2,3,4,14b-tetrahydro-1H-dibenzo[b,f]pyrido[1,2-d][1,4]oxazepin-1-yl)-2,2,2-trifluoroacetamide], for which the EC50 lay within 10 to 100 nM.

In the case of `CC(C)(C)OC(=O)Nc1cc2c(cc1Cl)N1CCC[C@H](NC(=O)C(F)(F)F)[C@H]1c1ccccc1O2` (relative stereo) [Example 46, trans-N-(7-Chloro-2,3,4,14b-tetrahydro-1-(2,2,2-trifluoroacetylamino)1H-dibenzo[b,f]pyrido[1,2-d][1,4]oxazepin-8-yl)carbamic Acid 1,1-dimethylethyl Ester], the 50% effective concentration (EC50) is 10 to 100 nM.

As for `CC(=O)c1cccc2c1N1CCC[C@H](NC(=O)C(F)(F)F)[C@H]1c1ccccc1O2` (relative stereo) [Example 52, trans-N-(6-Acetyl-2,3,4,14b-tetrahydro-1H-dibenzo[b,f]pyrido[1,2-d][1,4]oxazepin-1-yl)-2,2,2-trifluoroacetamide], the EC50 is less than 10 nM.

For `CCC(=O)Nc1ccc2c(c1)N1CCC[C@H](NC(=O)C(F)(F)F)[C@H]1c1ccccc1O2` (relative stereo) [Example 67, trans-N-[2,3,4,14b-Tetrahydro-7-[(1-oxopropyl)amino]-1H-dibenzo[b,f]pyrido[1,2-d][1,4]oxazepin-1-yl]-2,2,2-trifluoroacetamide], the EC50 was in the range of 100 to 10000 nM.

For the molecule `N#Cc1cccc2c1N1CCC[C@H](NC(=O)C(F)(F)F)[C@H]1c1ccccc1O2` (relative stereo) [Example 53, trans-2,3,4,14b-Tetrahydro-1-[(trifluoroacetyl)amino]-1H-dibenzo[b,f]pyrido[1,2-d][1,4]oxazepine-6-carbonitrile], the EC50 is less than 10 nM.

In the case of `O=C(N[C@H]1CCCN2c3cc(Cl)c(NS(=O)(=O)c4ccccc4)cc3Oc3ccccc3[C@H]12)C(F)(F)F` (relative stereo) [Example 45, trans-N-(7-Chloro-2,3,4,14b-tetrahydro-8-[(phenylsulfonyl)amino]-1H-dibenzo[b,f]pyrido[1,2-d][1,4]oxazepin-1-yl)-2,2,2-trifluoroacetamide], the EC50 is 10 to 100 nM.
